Results as given in patent US11576923B2, “Composition for improving skin elasticity comprising novel ginsenoside” (AMOREPACIFIC CORPORATION, priority 2019, dated 2023).

Columns and labels:
Type in all cases: cell-based
[1] = test system: collagen biosynthesis in normal human dermal fibroblasts (NHDFs); assay: Collagen biosynthesis-promoting effect (procollagen mRNA by Q-PCR, secreted collagen protein by ELISA)
Procedure: Normal human dermal fibroblasts (NHDFs; ATCC) were cultured in Dulbecco's modified Eagle's medium (Sigma) supplemented with 10% fetal bovine serum (FBS; Hyclone) and 1 (w/v) % penicillin/streptomycin (Sigma) at 37° C. in a 5% CO2 incubator. For collagen synthesis, after replacing the medium with serum-free Dulbecco's modified Eagle's medium, the cells were treated with GS #10, which is a novel ginsenoside according to an exemplary embodiment of the present disclosure, and ginsenosides GS #01-GS #06 as comparative examples of the present disclosure, which were isolated from the ginseng seed extract, for 24 hours at a concentration of 10 μg/mL, respectively. Fibroblast growth factor 1 (FGF1) was used as a positive control group for inducing collagen synthesis. After recovering the cells and extracting RNA using a TRIzol™ reagent (Thermo), cDNA was synthesized using a ReverdAid 1st strand cDNA synthesis kit (Thermo). Then, the change in the amount of procollagen mRNA was observed using a gene amplifier (CFX96 thermocycler, Bio-Rad) (FIG. 11), and the amount of the collagen protein secreted to the medium was measured using a collagen ELISA kit (Abcam) (FIG. 12) […]

SH-SY5Y cells = assay: Cytotoxicity (CCK-8 cell viability); details: 0.1, 1, 5, 10, 20 and 50 μM, FIG. 19
Procedure: Cell growth in the presence of the novel ginsenoside GS #10 according to an exemplary embodiment of the present disclosure was evaluated using a cell counting kit (CCK-8) in order to exclude the possibility that the ginsenoside may affect the effect of improving skin elasticity or improving wrinkles through cytotoxic activity. The experimental method is as follows.
10 μL of a CCK-8 reagent was added to SH-SY5Y cells (Dojindo, Md., USA) in a 96-well plate and left at 37° C. for 2 hours. Then, absorbance was measured at 450 nm. Cell viability was represented as the percentage (%) of the absolute optical density of each sample relative to an untreated sample. The concentration of the novel ginsenoside GS #10 according to an exemplary embodiment of the present disclosure in the medium in which the cells were cultured was 0.1, 1, 5, 10, 20 and 50 μM, respectively.

[2] = test system: matrix metalloproteinase-1 (MMP-1) expression in normal human dermal fibroblasts (NHDFs); assay: Collagen degradation-inhibiting effect (TNFα-induced MMP-1 mRNA by Q-PCR, secreted MMP-1 protein by ELISA)
Text: For skin elasticity to be maintained, the synthesis of collagen should be promoted and its degradation should be inhibited. Because collagen is degraded by matrix metalloproteinase-1 (MMP-1), it was investigated whether the ginseng seed-derived ginsenosides inhibit the expression of the collagen-degrading enzyme. After pretreating normal human dermal fibroblasts (NHDFs; ATCC) with GS #10, which is a novel ginsenoside according to an exemplary embodiment of the present disclosure, and ginsenosides GS #01-GS #06 as comparative examples of the present disclosure, which were isolated from the ginseng seed extract, under a serum-free condition in the same manner as in Test Example 1 for 2 hours at a concentration of 10 μg/mL, respectively, the cells were treated for 24 hours with a substance capable of inducing inflammatory response (TNFα; 10 ng/mL), which can promote the expression of MMP-1. After preparing RNA and cDNA in the same manner as in Test Example 1, the expression of MMP-1 mRNA was investigated by Q-PCR (FIG. 13), and the amount of the secreted MMP-1 protein was analyzed using a human MMP-1 ELISA kit (Abcam) (FIG. 14). […] Through this, it was confirmed that Compound 10 (GS #10), which is a novel ginsenoside of the present disclosure, can effectively improve skin elasticity by alleviating or delaying the decline in skin elasticity and the formation of wrinkles. […]

CC1(C)C(=O)CC[C@@]2(C)C1[C@@H](O[C@H]1OC(CO)[C@H](O)C(O)C1O[C@H]1OC(CO)[C@H](O)C(O)C1O)C[C@]1(C)C2C[C@@H](O)C2C([C@]3(C)CC[C@H](C(C)(C)O)O3)CC[C@]21C (stereo partly drawn) [Compound 10, (20S,24R)-6-O-β-D-glucopyranosyl(1→2)-β-D-glucopyranoside-dammar-3-one-20,24-epoxy-6a,12b,25-triol]
increase in the amount of collagen due to promoted collagen biosynthesis ([1]; NHDFs, 10 μg/mL, 24 hours, serum-free, vs control group (−), FIG. 11 and FIG. 12): about 2 times | increase of collagen synthesis ([1]; Test Example 3, same manner as Test Example 1, FIG. 15 and FIG. 16): ≥ 2 times | cytotoxicity (cell viability, CCK-8) (SH-SY5Y cells): did not exhibit cytotoxicity up to 50 μM | effect of inhibiting MMP-1 expression as compared to Compounds 1-6 ([2]; NHDFs, 10 μg/mL pretreatment 2 hours, then TNFα 10 ng/mL 24 hours, FIG. 13 and FIG. 14): 2-3 times higher | effect of inhibiting collagen degradation as compared to the three red ginseng marker ginsenosides ([2]; Test Example 3, same manner as Test Example 2, FIG. 17 and FIG. 18): remarkably excellent effect of inhibiting collagen degradation
